Experimental data published in BindingDB's records for doi:10.1021/jm00124a027 (Syntex Research, 1989).

Assay: Inhibition of thromboxane A2 synthetase as reduced ADP-induced aggregation of human platelet rich plasma in the presence of pig aortal microsomes

Row | SMILES | IC50 [nM]
1 | Cn1c(/C=C/C(=O)O)ccc1Cn1ccnc1 | 3800
2 | COC(=O)[C@@H]1CC1c1ccc(Cn2ccnc2)n1C (some centres not stated) | 9100
3 | C/C(=C/c1cc(Cc2cccnc2)n(C(C)(C)C)c1)C(=O)O | 44
4 | C/C(=C/c1ccc(Cc2cccnc2)n1C(C)C)C(=O)O | 2100
5 | C/C(=C/c1ccc(Cc2cccnc2)n1-c1ccccc1)C(=O)O | 24000
6 | C/C(=C/c1ccc(Cc2cccnc2)n1C)C(=O)O | 50
7 | CCn1c(/C=C(/C)C(=O)O)ccc1Cc1cccnc1 | 42
8 | Cn1cc(/C=C/C(=O)O)cc1Cn1ccnc1 | 4600
9 | C/C(=C\c1cc(Cn2ccnc2)n(C)c1)C(=O)O | 1600
10 | C/C(=C/c1ccc(Cc2cccnc2)n1CC(C)(C)C)C(=O)O | 78000
11 | C/C(=C/c1ccc(Cn2ccnc2)n1C)C(=O)O | 1000
12 | C/C(=C\c1ccc(Cn2ccnc2)[nH]1)C(=O)O | 9100
